According to US11446226B2, “Composition for preventing or improving intrinsic aging comprising paeoniflorin or albiflorin” (Amorepacific Corporation, priority 2017, dated 2022):

Columns and labels:
MMP-1 [1] = assay: MMP-1 inhibition effect in fibroblasts, stimulation source UV (UVB; MMP-1 ELISA normalized to CCK8 cell viability); type: cell-based; details: 48 hours
Procedure: Fibroblasts acquired from ATCC were transferred to a medium containing 10% (v/v) FBS and were cultured at 37° C. for 24 hours under the condition of 5% CO2. After replacing the medium with a serum-free medium, the cells were cultured for at least 6 hours. Then, after treating with 30 mJ/cm^2 UVB, as an extrinsic stimulating factor causing extrinsic aging, and then with 0.1 ppm or 1 ppm paeoniflorin (Sigma-Aldrich), the cells were cultured for 48 hours. 48 hours later, the culture was separated partly and MMP-1 ELISA was conducted according to a method commonly employed in the art. A negative control group was not treated with paeoniflorin, and a positive control group was treated with 2 μM ATRA (all-trans retinoic acid) instead of the paeoniflorin.
Subsequently, the remaining culture was separated partly and cell viability was measured by CCK8 (cell count kit 8) assay according to a method commonly employed in the art. The result was normalized to the result of the MMP-1 ELISA.
Meanwhile, the MMP-1 inhibition effect by albiflorin was investigated in the same manner as the MMP-1 inhibition effect by paeoniflorin, except that the cells were treated with 0.1 ppm or 1 ppm albiflorin (Wako Chemical) instead of the 0.1 ppm or 1 ppm paeoniflorin.

MMP-1 [2] = assay: MMP-1 inhibition effect in fibroblasts, stimulation source TNF-α (MMP-1 ELISA normalized to CCK8 cell viability); type: cell-based; details: TNF-α 10 ng/mL; for MMP-1 level with respect to the negative control group treated with TNF-α as 100: 0.1 or 1 ppm; for Normalized MMP-1 level relative to TNF-α control (100%): 48 hours
Procedure: Fibroblasts acquired from ATCC were transferred to a medium containing 10% (v/v) FBS and were cultured at 37° C. for 24 hours under the condition of 5% CO2. After replacing the medium with a serum-free medium, the cells were cultured for at least 6 hours. Then, after treating with 10 ng/mL TNF-α, as an intrinsic inflammatory factor causing intrinsic aging, and then with 0.1 ppm or 1 ppm paeoniflorin (Sigma-Aldrich), the cells were cultured for 48 hours. 48 hours later, the culture was separated partly and MMP-1 ELISA was conducted according to a method commonly employed in the art. A negative control group was not treated with paeoniflorin, and a positive control group was treated with 2 μM ATRA (all-trans retinoic acid) instead of the paeoniflorin. Subsequently, the remaining culture was separated partly and cell viability was measured by CCK8 (cell count kit 8) assay according to a method commonly employed in the art. The result was normalized to the result of the MMP-1 ELISA. Meanwhile, the MMP-1 inhibition effect by albiflorin was investigated in the same manner as the MMP-1 inhibition effect by paeoniflorin, except that the cells were treated with 0.1 ppm or 1 ppm albiflorin (Wako Chemical) instead of the 0.1 ppm or 1 ppm paeoniflorin. The MMP-1 inhibition effect by a combination of paeoniflorin and albiflorin was investigated in the same manner as the MMP-1 inhibition effect by paeoniflorin, except that the cells were treated with a 10:1 mixture of paeoniflorin and albiflorin (P+A) at 0.1+0.01 ppm or 1+0.1 ppm instead of the 0.1 ppm or 1 ppm paeoniflorin.

[3] = UVB 30 mJ/cm^2, 0.1 ppm, with respect to negative control
[4] = UVB 30 mJ/cm^2, 1 ppm, with respect to negative control
[5] = 0.1 ppm, with respect to negative control
[6] = 1 ppm, with respect to negative control

SMILES | Normalized MMP-1 Inhibition (%) (MMP-1 [1]; [3]) | Normalized MMP-1 Inhibition (%) (MMP-1 [1]; [4]) | MMP-1 level with respect to the negative control group treated with TNF-α as 100 (MMP-1 [2]) | Normalized MMP-1 level relative to TNF-α control (100%) (MMP-1 [2]; [5]) | Normalized MMP-1 level relative to TNF-α control (100%) (MMP-1 [2]; [6]) | Normalized MMP-1 Inhibition (%) (MMP-1 [1]; UVB 30 mJ/cm^2, positive control 2 μM ATRA) | Normalized MMP-1 level relative to TNF-α control (100%) (MMP-1 [2]; positive control 2 μM ATRA)
C[C@@]12C[C@@]3(O)O[C@@H](O1)[C@]1(COC(=O)c4ccccc4)[C@H]3C[C@@]12O[C@@H]1O[C@H](CO)[C@@H](O)[C@H](O)[C@H]1O [Paeoniflorin, paeoniflorin] | −3.27% | −22.03% | about 60% | 69.34% | 66.49% |  | 
C[C@]12C[C@@H](O)[C@@H]3C[C@@]1(O[C@@H]1O[C@H](CO)[C@@H](O)[C@H](O)[C@H]1O)[C@]3(COC(=O)c1ccccc1)C(=O)O2 [Albiflorin, albiflorin] | −5.29% | −10.96% | about 60% | 63.25% | 59.44% |  | 
CC1=C(/C=C/C(C)=C/C=C/C(C)=C/C(=O)O)C(C)(C)CCC1 [Positive control, all-trans retinoic acid, reference compound] |  |  |  |  |  | 25.72% | 48.75%
